Measured values as given in PubChem BioAssay (NCI).
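Compound exposure: 48 hours, 5 concentrations, 96-well plates. TGI marks complete inhibition of growth.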

Assays:
Test in all cases: NCI-60 cell line screen, 48 h
786-0 renal = test system: 786-0 renal
A498 renal = test system: A498 renal
A549 NSCLC = test system: A549 NSCLC
ACHN renal = test system: ACHN renal
BT-549 breast = test system: BT-549 breast
CAKI-1 renal = test system: CAKI-1 renal
CCRF-CEM leukemia = test system: CCRF-CEM leukemia
COLO 205 colon = test system: COLO 205 colon
DU-145 prostate = test system: DU-145 prostate
EKVX NSCLC = test system: EKVX NSCLC
HCC-2998 colon = test system: HCC-2998 colon
HCT-116 colon = test system: HCT-116 colon
HCT-15 colon = test system: HCT-15 colon
HL-60(TB) leukemia = test system: HL-60(TB) leukemia
HOP-62 NSCLC = test system: HOP-62 NSCLC
HOP-92 NSCLC = test system: HOP-92 NSCLC
HS 578T breast = test system: HS 578T breast
HT29 colon = test system: HT29 colon
IGROV1 ovarian = test system: IGROV1 ovarian
K-562 leukemia = test system: K-562 leukemia
KM12 colon = test system: KM12 colon
LOX IMVI melanoma = test system: LOX IMVI melanoma
M14 melanoma = test system: M14 melanoma
MALME-3M melanoma = test system: MALME-3M melanoma
MCF7 breast = test system: MCF7 breast
MDA-MB-231 breast = test system: MDA-MB-231 breast
MDA-MB-435 = test system: MDA-MB-435
MDA-N = test system: MDA-N
MOLT-4 leukemia = test system: MOLT-4 leukemia
NCI-H226 lung = test system: NCI-H226 lung
NCI-H23 lung = test system: NCI-H23 lung
NCI-H460 lung = test system: NCI-H460 lung
NCI-H522 lung = test system: NCI-H522 lung
NCI/ADR-RES ovarian = test system: NCI/ADR-RES ovarian
OVCAR-3 ovarian = test system: OVCAR-3 ovarian
OVCAR-4 ovarian = test system: OVCAR-4 ovarian
OVCAR-5 ovarian = test system: OVCAR-5 ovarian
OVCAR-8 ovarian = test system: OVCAR-8 ovarian
PC-3 prostate = test system: PC-3 prostate
RPMI-8226 leukemia = test system: RPMI-8226 leukemia
RXF 393 renal = test system: RXF 393 renal
SF-268 CNS = test system: SF-268 CNS
SF-295 CNS = test system: SF-295 CNS
SF-539 CNS = test system: SF-539 CNS
SK-MEL-2 melanoma = test system: SK-MEL-2 melanoma
SK-MEL-28 melanoma = test system: SK-MEL-28 melanoma
SK-MEL-5 melanoma = test system: SK-MEL-5 melanoma
SK-OV-3 ovarian = test system: SK-OV-3 ovarian
SN12C renal = test system: SN12C renal
SNB-19 CNS = test system: SNB-19 CNS
SNB-75 CNS = test system: SNB-75 CNS
SR leukemia = test system: SR leukemia
SW-620 colon = test system: SW-620 colon
T-47D breast = test system: T-47D breast
TK-10 renal = test system: TK-10 renal
U251 CNS = test system: U251 CNS
UACC-257 melanoma = test system: UACC-257 melanoma
UACC-62 melanoma = test system: UACC-62 melanoma
UO-31 renal = test system: UO-31 renal

## c1ccc2c(c1)CCN1CCc3c([nH]c4ccccc34)C21 (configuration not stated)
786-0 renal
  TGI: > 100 µM
A498 renal
  TGI: 54.5 µM
A549 NSCLC
  TGI: > 100 µM
ACHN renal
  TGI: > 100 µM
BT-549 breast
  TGI: > 100 µM
CAKI-1 renal
  TGI: > 100 µM
CCRF-CEM leukemia
  TGI: 95.5 µM
COLO 205 colon
  TGI: 37.8 µM
DU-145 prostate
  TGI: > 100 µM
EKVX NSCLC
  TGI: 82.1 µM
HCC-2998 colon
  TGI: 34 µM
HCT-116 colon
  TGI: 76.5 µM
HCT-15 colon
  TGI: > 100 µM
HL-60(TB) leukemia
  TGI: 34.3 µM
HOP-62 NSCLC
  TGI: > 100 µM
HOP-92 NSCLC
  TGI: 72.2 µM
HS 578T breast
  TGI: > 100 µM
HT29 colon
  TGI: 99.3 µM
IGROV1 ovarian
  TGI: > 100 µM
K-562 leukemia
  TGI: 43.3 µM
KM12 colon
  TGI: > 100 µM
LOX IMVI melanoma
  TGI: 53.1 µM
M14 melanoma
  TGI: 34 µM
MALME-3M melanoma
  TGI: 38.3 µM
MCF7 breast
  TGI: > 100 µM
MDA-MB-231 breast
  TGI: > 100 µM
MDA-MB-435
  TGI: 75.5 µM
MDA-N
  TGI: 73.8 µM
MOLT-4 leukemia
  TGI: 70.6 µM
NCI-H226 lung
  TGI: 97.5 µM
NCI-H23 lung
  TGI: > 100 µM
NCI-H460 lung
  TGI: > 100 µM
NCI-H522 lung
  TGI: 66 µM
NCI/ADR-RES ovarian
  TGI: 56.9 µM
OVCAR-3 ovarian
  TGI: 66.7 µM
OVCAR-4 ovarian
  TGI: > 100 µM
OVCAR-5 ovarian
  TGI: > 100 µM
OVCAR-8 ovarian
  TGI: > 100 µM
PC-3 prostate
  TGI: 98.5 µM
RPMI-8226 leukemia
  TGI: 55.1 µM
RXF 393 renal
  TGI: 72.3 µM
SF-268 CNS
  TGI: > 100 µM
SF-295 CNS
  TGI: 57.4 µM
SF-539 CNS
  TGI: > 100 µM
SK-MEL-2 melanoma
  TGI: 57.1 µM
SK-MEL-28 melanoma
  TGI: 48.8 µM
SK-MEL-5 melanoma
  TGI: 29.7 µM
SK-OV-3 ovarian
  TGI: > 100 µM
SN12C renal
  TGI: > 100 µM
SNB-19 CNS
  TGI: > 100 µM
SNB-75 CNS
  TGI: 79 µM
SR leukemia
  TGI: 56.3 µM
SW-620 colon
  TGI: > 100 µM
T-47D breast
  TGI: > 100 µM
TK-10 renal
  TGI: > 100 µM
U251 CNS
  TGI: > 100 µM
UACC-257 melanoma
  TGI: 91.6 µM
UACC-62 melanoma
  TGI: > 100 µM
UO-31 renal
  TGI: > 100 µM

## O=C1NC(N/N=C/c2ccccc2)=N/C1=C\c1cccs1
786-0 renal
  TGI: 44.6 µM
A498 renal
  TGI: 28 µM
A549 NSCLC
  TGI: > 100 µM
ACHN renal
  TGI: 33.5 µM
BT-549 breast
  TGI: 33.6 µM
CAKI-1 renal
  TGI: 33.3 µM
CCRF-CEM leukemia
  TGI: > 75.8 µM
COLO 205 colon
  TGI: 19.9 µM
DU-145 prostate
  TGI: 56.5 µM
EKVX NSCLC
  TGI: 47.3 µM
HCT-116 colon
  TGI: 36.3 µM
HCT-15 colon
  TGI: 48.5 µM
HL-60(TB) leukemia
  TGI: 36.7 µM
HOP-62 NSCLC
  TGI: 37.8 µM
HOP-92 NSCLC
  TGI: 32.4 µM
HS 578T breast
  TGI: 9.94 µM
HT29 colon
  TGI: > 55.3 µM
IGROV1 ovarian
  TGI: 34.4 µM
K-562 leukemia
  TGI: > 80.3 µM
KM12 colon
  TGI: > 70.9 µM
LOX IMVI melanoma
  TGI: 23.4 µM
M14 melanoma
  TGI: > 100 µM
MALME-3M melanoma
  TGI: 27.8 µM
MCF7 breast
  TGI: 46.5 µM
MDA-MB-231 breast
  TGI: 38.7 µM
MDA-MB-435
  TGI: 34.6 µM
MDA-N
  TGI: > 25.2 µM
MOLT-4 leukemia
  TGI: > 92.3 µM
NCI-H226 lung
  TGI: 25.8 µM
NCI-H23 lung
  TGI: 40.7 µM
NCI-H460 lung
  TGI: > 100 µM
NCI-H522 lung
  TGI: 5.61 µM
NCI/ADR-RES ovarian
  TGI: 37.6 µM
OVCAR-3 ovarian
  TGI: 33.9 µM
OVCAR-4 ovarian
  TGI: > 68.9 µM
OVCAR-5 ovarian
  TGI: 70.8 µM
OVCAR-8 ovarian
  TGI: 29.3 µM
PC-3 prostate
  TGI: 26.7 µM
RPMI-8226 leukemia
  TGI: > 41 µM
RXF 393 renal
  TGI: 40.7 µM
SF-268 CNS
  TGI: 30.3 µM
SF-295 CNS
  TGI: 34.6 µM
SF-539 CNS
  TGI: 26.6 µM
SK-MEL-2 melanoma
  TGI: 20.6 µM
SK-MEL-28 melanoma
  TGI: 37.7 µM
SK-MEL-5 melanoma
  TGI: 20.7 µM
SK-OV-3 ovarian
  TGI: 39.1 µM
SN12C renal
  TGI: 46.4 µM
SNB-19 CNS
  TGI: > 87.3 µM
SNB-75 CNS
  TGI: 51.8 µM
SR leukemia
  TGI: > 100 µM
SW-620 colon
  TGI: > 47.5 µM
T-47D breast
  TGI: > 100 µM
TK-10 renal
  TGI: 71.5 µM
U251 CNS
  TGI: 32.8 µM
UACC-257 melanoma
  TGI: > 100 µM
UACC-62 melanoma
  TGI: 38 µM
UO-31 renal
  TGI: 48.7 µM
